Measured values taken from US8093268B2, “Pharmaceutical compositions comprising 2-methoxy-5-(5-trifluoromethyl-tetrazol-1-yl-benzyl)-(2S-phenylpiperidin-3S-yl-)” (Glaxo Group Limited, priority 2007, dated 2012).
Blank lines part the entries; values can stand above or below the compound they belong to.

Experiments:
[1] = test system: rats; assay: FCA (Freunds Complete Adjuvant) model of inflammatory hypersensitivity to pain, weight bearing; format: in vivo, rat
Description: • Naïve weight bearing readings were taken. The hypersensitivity to pain was measured using the Rat incapacitance tester (Linton instruments). This instrument is serviced once a year and should be regularly calibrated • All rats then received an intraplantar injection of 100 ul of FCA (Freund's complete adjuvant) into the left hind paw. The FCA was sonicated for 15 minutes prior to use. • Approximately 23 hrs after administration of the FCA, pre-dose weight bearing readings were taken. All animals were then ranked and randomised for dosing according to their FCA window (predose difference in grams−naïve difference in grams). […] Celebrex 10 mg/kg p.o. (positive control) as appropriate according to ranking and randomisation. • Animals were assessed in the weight bearing apparatus 1 hour post dose. • The study was blind and randomised by FCA window using the Latin square method. • % reversals were calculated by using the naïve, pre-dose and post dose values as follows: % Reversal=[(Pre-dose−Post-dose)/(Pre-dose−Naïve)]×100 • Graphs and ED50 were calculated where appropriate using Prism4. • Statistical analysis was carried out using ANOVA followed by calculating the least square means using the statistical package Statistica 6.1 • From the dose response curves the ED20 was determined for the combination study Results • Naïve weight bearing readings were taken. The hypersensitivity to pain was measured using the Rat incapacitance tester (Linton instruments). This instrument is serviced once a year and should be regularly calibrated • All rats then received an intraplantar injection of 100 ul of FCA (Freund's complete adjuvant) into the left hind paw. The FCA was sonicated for 15 minutes prior to use. • Approximately 23 hrs after administration of the FCA, pre-dose weight bearing readings were taken. All animals were then ranked and randomised for dosing according to their FCA window (predose difference in grams−naïve difference in grams). […] See table 5 for details of the groups • Animals were assessed in the weight bearing apparatus 1 hour post dose. • The study was blind and randomised by FCA window using the Latin square method. • % reversals were calculated by using the naïve, pre-dose and post dose values as follows: % Reversal=[(Pre-dose−Post-dose)/(Pre-dose−Naïve)]×100 • Statistical analysis was carried out using ANOVA followed by calculating the least square means using the statistical package Statistica 6.1 • ED50 and ED20 values and graphs were calculated using prism5 • Naïve weight bearing readings were taken. The hypersensitivity to pain was measured using the Rat incapacitance tester (Linton instruments). This instrument is serviced once a year and should be regularly calibrated • All rats then received an intraplantar injection of 100 ul of FCA (Freund's complete adjuvant) into the left hind paw. The FCA was sonicated for 15 minutes prior to use. • Approximately 23 hrs after administration of the FCA, pre-dose weight bearing readings were taken. All animals were then ranked and randomised for dosing according to their FCA window (predose difference in grams−naïve difference in grams). […] Graphs and ED50 were calculated where appropriate using Prism5 • Statistical analysis was carried out using ANOVA followed by calculating the least square means using the statistical package Statistica 6.1 Results

[2] = test system: Male CD rats; assay: Rat MEST model (maximal electroshock seizure threshold); format: in vivo
Description: This work was conducted in compliance with the Home Office Guidance on the operation of the Animals (Scientific Procedures) Act 1986 and GlaxoSmithKline ethical standards. Male CD rats (100-145 g) were supplied by Charles River, UK. Animals were group housed (6 animal per cage) with free access to food (Standard rodent chow; Harlan, UK) and water under a 12 h light/dark cycle (lights on at 0700 h). A period of at least one week between arrival at GSK and the study was allowed in all cases.
Animals were administered a test compound at the appropriate dose, route and pre-treatment time and returned to their home cage. Testing occurred in a separate room from that used for housing. Testing involved determining the threshold for tonic hindlimb extensor seizures using a Hugo Sachs Electronik stimulator which delivers a constant current of 0.3 second duration, 50 Hz, sinewave form, fully adjustable between 1 and 300 mA. Stimuli were delivered via corneal electrodes (Stean T O, Atkins A R, Heidbreder C A, Quinn L P, Trail B K, Upton N. (2005) Br J. Pharmacol. 144(5):628-35). Seizure threshold was determined using the ‘up and down’ method of Kimball et al. (1957)(Kimball A W, Burnett W T Jr, Doherty D G. (1957) Radiat Res. 7(1):1-12). The first animal tested in each group was stimulated with a current that might be expected to be close to the threshold for induction of a seizure. If a tonic seizure was not induced, then then next animal in the group received a stimulus 5 mA higher. If a tonic seizure was induced, then the next animal received a stimulus 5 mA lower. This is repeated for all animals within the control (vehicle) group. In the case of groups treated with a sodium channel blocker steps of 10 to 30 mA were used.
(§1) All doses were calculated as base. ENa9 and ENa13 were dosed via the subcutaneous (s.c.) route at 1 ml/kg in a 2% v/v DMSO/saline vehicle 30 minutes prior to test. ENa7 and ENa14 were dosed orally (p.o.) in a 1% w/v methylcellulose/water vehicle at 2 ml/kg, 60 minutes before test. Compound ENK6 was dosed with via the intraperitoneal (i.p.) route 60 minutes before the test or via the s.c. route 15 minutes before test. In both cases ENK6 was dissolved in saline.
Induction of seizure is measured as an all-or-nothing effect scored as either present (+) or absent (0) for each animal. The data for each treatment group were recorded as the number of +'s and 0's at each current level employed and this information was then used to calculate the CC50 value (current required for 50% of animals to show seizure behaviour)+standard error of the mean according to the method of Kimball et al. (1957). Drug effects were calculated as the % change in CC50. Significant differences between drug-treated animals and appropriate vehicle treated groups were assessed according to the methods of Litchfield and Wilcoxon (1949). The statistical significance of differences between sodium channel blocker alone or in combination with ENK6 was assessed using a Student's t test.

[3] = Blood and brain concentrations in satellite animals of the MEST studies; format: in vivo, rat; conditions: 1 and 3 mg/kg s.c. with ENK6 30 mg/kg i.p.
Description: Satellite animals (n=3/group) received the same drugs or combinations of drugs as the test groups, and were culled at the appropriate time after dosing. Blood and brain samples were taken for analysis of the drug concentrations in these compartments.
as §1

[4] = ED20 dose alone (ENa7 0.1 mg/kg p.o.; ENK6 0.08 mg/kg s.c.)
[5] = FIG. 3, group marked by vertical arrow, ENK6 10 mg/kg sc 15 min ptt, Ena7 1 & 3 mg/kg po 60 min ptt
[6] = 3 mg/kg s.c., 30 min before test, alone

Compound: COc1ccc(-n2nnnc2C(F)(F)F)cc1CN[C@H]1CCCN[C@H]1c1ccccc1.Cl.Cl [ENK6, [2-Methoxy-5-(5-trifluoromethyl-tetrazol-1-yl)-benzyl]-([2S,3S]-2-phenyl-piperidin-3-yl)-amine dihydrochloride]
effect on FCA induced hypersensitivity ([1]; 0.1-3.0 mg/kg, alone, 1 hour post dose, dihydrochloride): dose related reversal of the FCA induced hypersensitivity | effect on FCA induced hypersensitivity [1, 4]: no significant effect on the FCA induced hypersensitivity | ED20, reversal of FCA induced hypersensitivity ([1]; s.c., alone (summary of results)): approx 0.08 mg/kg | effect on seizure threshold ([2]; 10 mg/kg s.c., 15 min before test, alone (first experiment)): no effect on seizure threshold | effect on seizure threshold ([2]; 30 mg/kg i.p., 60 min before test, alone): no effect on seizure threshold | effect on seizure threshold ([2]; 30 mg/kg s.c., 15 min before test, alone): no effect on seizure threshold

Compound: Nc1nnc(-c2cccc(Cl)c2Cl)c(N)n1 [ENa7, 3,5-diamino-6-(2,3-dichlorophenyl)-1,2,4-triazine, reference compound]
effect on FCA induced hypersensitivity ([1]; 0.1-3.0 mg/kg, alone, 1 hour post dose): dose related reversal of the FCA induced hypersensitivity | effect on FCA induced hypersensitivity [1, 4]: no significant effect on the FCA induced hypersensitivity | effect on seizure threshold ([2]; 1 mg/kg p.o., 60 min before test, alone): little or no increase in seizure threshold | CC50 value [2, 5]: greater than 180 mA | increase in CC50 [2, 5]: > 780%

blood or brain concentration in the presence of ENK6 versus alone [3]: No increase
Compound: Cl.NC(=O)[C@@H]1CC[C@H](c2ccc(OCc3ccccc3F)cc2)N1 [ENa9, (5R)-5-(4-{[(2-fluorophenyl)methyl]oxy}phenyl)-L-prolinamide hydrochloride]
effect on seizure threshold [2, 6]: small, but significant increase in seizure threshold

blood or brain concentration in the presence of ENK6 versus alone [3]: No increase
Compound: CN1CC[C@]2(CC[C@H](c3ccc(OCc4ccccc4F)cc3)N2)C1=O.Cl [ENa13, (2R,5R)-2-(4-{[(2-Fluorophenyl)methyl]oxy}phenyl)-7-methyl-1,7-diazaspiro[4,4]nonan-6-one hydrochloride]
effect on seizure threshold [2, 6]: robust and significant increase in seizure threshold

Compound: Nc1nc(N)c(-c2cccc(Cl)c2Cl)c(CF)n1 [ENa15, R(−)-2,4-diamino-5-(2,3-dichlorophenyl)-6-fluoromethyl pyrimidine methanesulphonate]
effect on seizure threshold ([2]; 0.3 mg/kg p.o., 60 min before test, alone): no increase in seizure threshold | increase in CC50(mA) ([2]; 1 mg/kg p.o. in the presence of ENK6 30 mg/kg s.c.): 51%
